The values below come from ChEMBL document CHEMBL3886494, “2′-cyano substituted nucleoside derivatives and methods of use thereof for the treatment of viral diseases” (2016).

Sequence of Genome polyprotein (P26663 2420-3010 limits assumed): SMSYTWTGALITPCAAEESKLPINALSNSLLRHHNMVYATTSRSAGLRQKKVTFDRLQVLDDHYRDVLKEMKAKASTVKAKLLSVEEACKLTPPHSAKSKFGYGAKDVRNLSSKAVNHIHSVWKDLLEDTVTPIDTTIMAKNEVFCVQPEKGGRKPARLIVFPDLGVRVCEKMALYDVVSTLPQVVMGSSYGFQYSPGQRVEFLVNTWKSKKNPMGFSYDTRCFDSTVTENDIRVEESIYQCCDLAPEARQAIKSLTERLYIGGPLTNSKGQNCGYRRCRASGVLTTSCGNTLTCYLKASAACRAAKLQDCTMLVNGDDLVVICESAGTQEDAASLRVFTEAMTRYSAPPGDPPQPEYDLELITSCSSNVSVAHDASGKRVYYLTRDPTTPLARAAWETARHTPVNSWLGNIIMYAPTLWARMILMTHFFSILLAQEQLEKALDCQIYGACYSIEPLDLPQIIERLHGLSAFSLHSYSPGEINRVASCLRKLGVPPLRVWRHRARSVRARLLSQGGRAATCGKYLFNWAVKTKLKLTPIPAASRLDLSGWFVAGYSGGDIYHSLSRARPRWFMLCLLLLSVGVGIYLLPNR

The assay has as its target Genome polyprotein (Hepatitis C virus genotype 1b (isolate BK) (HCV), UniProt P26663). Kind of assay: Inhibition Assay: To measure inhibition of the enzymatic activity of the HCV NS5B RNA-dependent RNA polymerase by the nucleoside triphosphate compounds of the present invention, a radiolabeled nucleotide incorporation assay was used. This assay is a modified version of the assay described in International Publication No. WO2002/057287. Briefly, 50 uL reactions containing 20 mM HEPES (pH 7.3); 7.5 mM DTT; 20 units/ml RNasIN; 1 uM each of ATP, GTP, UTP and CTP; 20 uCi/mL [33P]-CTP; 10 mM MgCl; 60 mM NaCl; 100 ug/ml BSA; 0.021 uM DCoH heteropolymer RNA template; and 5 nM NS5B (1b-BKΔ55) enzyme were incubated at room temperature for 1 hour. The assay was then terminated by the addition of 500 mM EDTA (50 uL). The reaction mixture was transferred to a Millipore DE81 filter plate and the incorporation of labeled CTP is determined using Packard TopCount. Compound IC50 values can then be calculated from experiments with 10 serial 3-fold dilutions of the inhibitor in duplicate.
As to `C[C@@]1(C#N)[C@@H](c2cnc3c(N)ncnn23)O[C@@H](COP(=O)(O)OP(=O)(O)OP(=O)(O)O)[C@@H]1O`, the IC50 (as a rule, the concentration at which inhibition is half-maximal) was 0.05 µM. The same measure for `CC1(C#N)[C@@H](O)[C@H](COP(=O)(O)OP(=O)(O)OP(=O)(O)O)O[C@]1(C#N)c1cnc2c(=O)[nH]cnn12` (some centres not stated): above 200 µM; for `CO[C@]1(c2cnc3c(N)ncnn23)O[C@@H](COP(=O)(O)OP(=O)(O)OP(=O)(O)O)[C@H](O)C1(C)C#N` (some centres not stated): 3.8 µM; for `C[C@]1(C#N)[C@H](O)[C@H](COP(=O)(O)OP(=O)(O)OP(=O)(O)O)O[C@]1(C#N)c1ccc2c(N)ncnn12`: 1.2 µM.

As for `CO[C@]1(c2ccc3c(N)ncnn23)O[C@@H](COP(=O)(O)OP(=O)(O)OP(=O)(O)O)[C@H](O)[C@]1(C)C#N`, the 50% inhibitory concentration (IC50) is 0.087 µM. The same measure for `C[C@@]1(C#N)[C@H](O)[C@@H](COP(=O)(O)OP(=O)(O)OP(=O)(O)O)O[C@H]1c1ccc2c(N)ncnn12`: 0.003 µM. With `CC1(C#N)[C@H](O)[C@@H](COP(=O)(O)OP(=O)(O)OP(=O)(O)O)O[C@@]1(C#N)c1cnc2c(N)ncnn12` (some centres not stated) the figure was 87 µM.
